Columns and labels:
L444P GC [1] = assay: intact cell GC activity assay in homozygous L444P GC patient-derived fibroblasts; format: cell-based, human
L444P GC [2] = target: T1, L444P GC (Homo sapiens, UniProt P04062, L483P); assay: lysed L444P fibroblasts incubated directly with test substance, lysed cell GC activity assay; format: biochemical; conditions: 0.01 to 1000 μM
T1 construct: homozygous L444P GC patient–derived fibroblasts; host or cells: homozygous L444P Gaucher patient skin fibroblasts
T1 sequence (P04062 40-536 L483P): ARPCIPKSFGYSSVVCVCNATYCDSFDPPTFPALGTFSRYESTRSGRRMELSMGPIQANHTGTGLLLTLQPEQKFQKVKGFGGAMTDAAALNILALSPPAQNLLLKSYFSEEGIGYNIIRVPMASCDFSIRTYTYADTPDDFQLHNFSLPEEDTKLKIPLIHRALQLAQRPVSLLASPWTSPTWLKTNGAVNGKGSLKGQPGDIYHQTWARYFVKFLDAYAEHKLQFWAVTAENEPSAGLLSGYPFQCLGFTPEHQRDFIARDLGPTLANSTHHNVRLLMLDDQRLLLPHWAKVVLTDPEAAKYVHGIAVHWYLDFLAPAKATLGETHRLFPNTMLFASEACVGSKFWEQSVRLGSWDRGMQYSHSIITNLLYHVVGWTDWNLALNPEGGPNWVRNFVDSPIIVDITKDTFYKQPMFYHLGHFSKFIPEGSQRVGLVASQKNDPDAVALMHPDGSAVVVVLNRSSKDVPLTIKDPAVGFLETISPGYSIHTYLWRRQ
Description: The intact cell GC activity assay has been previously described. Briefly, cells were plated into 48-well assay plates (500 μl per well). After cell attachment, the media was replaced by media containing small molecules. Media was changed every 3 d. After incubation at 37 °C for the indicated amount of time, the intact cell GC activity assay was performed. The monolayers were washed by DPBS. The reaction was started by the addition of 150 μl of 3 mM 4-methylumbelliferyl β-D-glucopyranoside in 0.2 M acetate buffer (pH 4.0) to each well, followed by incubation at 37 °C for 1–7 h. CBE was used as a control to evaluate the extent of nonspecific GC activity. […] Liberated 4-methylumbelliferone was measured (excitation 365 nm, emission 445 nm) with a SpectraMax Gemini plate reader (Molecular Devices). The lysed cell GC activity assay has been previously described. […] Total cell protein was measured using the Micro BCA assay reagent (Pierce #23235). Thirty μg of total cell protein was assayed for the GC activity in 100 μl of 0.1 M acetate buffer (pH 5.0) containing 3 mM 4-methylumbelliferyl β-D-glucopyranoside in the presence of 0.15% Triton X-100 (v/v, Fisher) and 0.15% taurodeoxycholate (w/v, Calbiochem). CBE was used as a control to evaluate the extent of nonspecific GC activity. […] The GC activity assay for recombinant WT GC enzymes has been previously described. […]

GC mRNA = format: cell-based, human; conditions: 10 μM; 6 h, 12 h, 1 d, 3 d, and 5 d
Description: (§1) Total RNA was extracted from the cells using RNeasy Mini Kit (Qiagen #74104). cDNA was synthesized from 500 ng of total RNA using QuantiTect Reverse Transcription Kit (Qiagen #205311). Quantitative PCR reactions were performed using QuantiTect SYBR Green PCR Kit (Qiagen #204143) and corresponding primers in the ABI PRISM 7900 system (Applied Biosystems). The forward and reverse primers for GC, Hsp40, Hsp70, Hsp90, HIP, HOP, BiP, GRP94, calnexin (CNX), and calreticulin (CRT), and an endogenous housekeeping gene large ribosomal protein (RiboP) are listed in Table S1. Samples were heated for 15 min at 95 °C and amplified in 45 cycles of 15 s at 94 °C, 30 s at 59 °C, and 30 s at 72 °C. Analysis was done using SDS2.1 software (Applied Biosystems). Threshold cycle (CT) was extracted from the PCR amplification plot. The ΔCT value was used to describe the difference between the CT of a target gene and the CT of the housekeeping gene: ΔCT = CT (target gene) – CT (housekeeping gene). The relative mRNA expression level of a target gene of diltiazem-treated cells was normalized to that of untreated cells: Relative mRNA expression level = 2 exp [–(ΔCT (treated cells) – ΔCT (untreated cells))].

[3] = system: cytoplasmic and ER lumenal chaperones; format: cell-based, human; conditions: 10 μM, 7 d, Figure S5
Description: as §1
Hsp40, Hsp70, Hsp90, HIP, HOP, BiP, GRP94, calnexin (CNX), and calreticulin (CRT) were probed using corresponding primer pairs. Large ribosomal protein (RiboP) served as a housekeeping gene control.

[4] = cited from earlier work
[5] = system: α-mannosidase, α-glucosidase, β-galactosidase, α-galactosidase, and β-glucuronidase; assay: cellular activity of other WT lysosomal hydrolases in WT and L444P GC fibroblasts; conditions: 10 μM, 5 d, Figure S2

activity of other WT lysosomal enzymes [5]: did not significantly increase
SMILES: COc1ccc([C@@H]2Sc3ccccc3N(CCN(C)C)C(=O)[C@@H]2OC(C)=O)cc1 [diltiazem]
maximum increase of L444P lysosomal GC activity (L444P GC [1]; 10 μM, 7 d, intact cell assay, Figure 3D): 2.3 fold | L444P GC activity after short incubation (L444P GC [1]; 1–100 μM, 1 h, intact cell assay, Figure S3): No activity increase was observed | increase of L444P GC activity (L444P GC [1]; additional type II cell line (Figure 1C middle panel), 15 μM, 5 d): 2.0 fold | increase of L444P GC activity (L444P GC [1]; additional type II cell line (Figure 1C middle panel), 15 μM, 7 d): 2.5 fold | L444P GC activity, screen of VGCC blockers, ionotropic glutamate receptor inhibitors and other calcium channel blockers (L444P GC [1]; intact cell GC activity assay, only the named compounds increased activity): increased L444P GC activity significantly | L444P GC activity as % of normal cellular WT GC activity (L444P GC [1]; type II patient cell line (Figure 1C left panel), 10 μM, 5-d incubation): ≈ 24% | maximum increase of L444P GC activity (L444P GC [1]; type II patient cell line (Figure 1C left panel), 10 μM, 5-d incubation, vs untreated cells): 2.0 fold | maximum increase of L444P GC activity (L444P GC [1]; type II patient cell line (Figure 1C left panel), 10 μM, 7-d incubation): 2.3 fold | maximum increase of L444P GC activity (L444P GC [1]; type III cell line (Figure 1C right panel), 10 μM, 5-d incubation): 2.1 fold | increase of L444P GC activity (L444P GC [1]; type III cell line (Figure 1C right panel), 10 μM, 7-d incubation): 2.3 fold | GC inhibition in lysed L444P fibroblasts (L444P GC [2]): No significant GC inhibition was observed | GC mRNA expression level vs untreated (GC mRNA): Strictly analogous results | Hsp40 mRNA expression level [3]: similarly increased | BiP and Hsp90 mRNA expression levels ([3]; compared with L444P cells): less of an increase | bioavailable concentration in blood plasma [4]: bioavailable in the μM concentration range

Source: publication PMC2225441, “Partial Restoration of Mutant Enzyme Homeostasis in Three Distinct Lysosomal Storage Disease Cell Lines by Altering Calcium Homeostasis” (PLoS Biology, 2008)
